In PMC6440567 (Clinical and Translational Science, 2018):

Key:
[1] = Final ceftazidime PopPK model; assay type: in vivo, human
[2] = Individual predicted steady‐state exposures; assay type: in vivo, human; conditions: for AUC / Cmax: human, plasma
[3] = taken to be; ref not given; cited from earlier work

What does the source list for CC(C)(O/N=C(\C(=O)N[C@@H]1C(=O)N2C(C(=O)[O-])=C(C[n+]3ccccc3)CS[C@H]12)c1csc(N)n1)C(=O)O [Ceftazidime, ceftazidime]?
lower V c ([1]; Asian compared with non‐Asian patients): 27%; lower CL ([1]; Chinese patients vs non‐Asians): 9%; Slope 1: CrCL < 100 mL/min, slope1*CrCL ([1]; CrCL effect on CL): 0.0103; lower V c ([1]; body weight at 10th percentile (50 kg) vs median weight (70 kg)): 24%; clearance ([1]; human, plasma, intravenous, θ1: CL, typical value): 116 mL/min; θ9: Population effect on V c (cUTI) ([1]; in vivo): 1.03; θ10: Population effect on V c (cIAI or NP) ([1]; in vivo): 1.14; θ13: WT effect on V c ([1]; in vivo): 1.01; θ14: Population effect on V c (NPv) ([1]; in vivo): 0.297; lower CL ([1]; non‐Chinese, non‐Japanese Asians vs non‐Asians): 16%; higher V c ([1]; patients with NPv vs non‐NPv patients): 29.7%; higher CL ([1]; patients with cIAI vs. healthy subjects and patients with cUTI): 16%; θ2: V c ([1]; typical value): 10.5 L; θ3: Q ([1]; typical value): 31.5 L/h; θ4: V p ([1]; typical value): 7.57 L; AUC ([2]; AUCss,0–24 geometric mean (CV), Age (years) 18–65): 800 µg·h/mL; AUC ([2]; AUCss,0–24 geometric mean (CV), Age (years) > 65–75): 997 µg·h/mL; AUC ([2]; AUCss,0–24 geometric mean (CV), Age (years) > 75–89): 1100 µg·h/mL; AUC ([2]; AUCss,0–24 geometric mean (CV), Asian population: China (only)): 892 µg·h/mL; AUC ([2]; AUCss,0–24 geometric mean (CV), Asian population: Japan): 1020 µg·h/mL; AUC ([2]; AUCss,0–24 geometric mean (CV), Baseline WBC count Missing): 924 µg·h/mL; AUC ([2]; AUCss,0–24 geometric mean (CV), Concomitant use of OAT1/OAT3 inhibitor(s): No): 869 µg·h/mL; AUC ([2]; AUCss,0–24 geometric mean (CV), Concomitant use of OAT1/OAT3 inhibitor(s): Yes): 934 µg·h/mL; AUC ([2]; AUCss,0–24 geometric mean (CV), Fever at baseline: Missing): 929 µg·h/mL; AUC ([2]; AUCss,0–24 geometric mean (CV), Fever at baseline: No): 888 µg·h/mL; AUC ([2]; AUCss,0–24 geometric mean (CV), Fever at baseline: Yes): 859 µg·h/mL; AUC ([2]; AUCss,0–24 geometric mean (CV), Obesity I (29.9 ≤ BMI < 34.9 kg/m^2)): 841 µg·h/mL; AUC ([2]; AUCss,0–24 geometric mean (CV), Obesity II (34.9 ≤ BMI < 39.9 kg/m^2)): 894 µg·h/mL; AUC ([2]; AUCss,0–24 geometric mean (CV), Obesity III (BMI ≥ 39.9 kg/m^2)): 806 µg·h/mL; AUC ([2]; AUCss,0–24 geometric mean (CV), Obesity: Missing): 959 µg·h/mL; AUC ([2]; AUCss,0–24 geometric mean (CV), Obesity: Normal): 878 µg·h/mL; AUC ([2]; AUCss,0–24 geometric mean (CV), Race: Asian (non‐Chinese; non‐Japanese)): 968 µg·h/mL; AUC ([2]; AUCss,0–24 geometric mean (CV), Race: Chinese and Taiwanese): 884 µg·h/mL; AUC ([2]; AUCss,0–24 geometric mean (CV), Race: Japanese): 1020 µg·h/mL; AUC ([2]; AUCss,0–24 geometric mean (CV), Race: White/other): 848 µg·h/mL; Cmax ([2]; C max,ss geometric mean (CV), Age (years) 18–65): 70 µg/mL; Cmax ([2]; C max,ss geometric mean (CV), Age (years) > 65–75): 77.1 µg/mL; Cmax ([2]; C max,ss geometric mean (CV), Age (years) > 75–89): 76.8 µg/mL; Cmax ([2]; C max,ss geometric mean (CV), Asian population: China (only)): 78.4 µg/mL; Cmax ([2]; C max,ss geometric mean (CV), Asian population: Japan): 90.4 µg/mL; Cmax ([2]; C max,ss geometric mean (CV), Asian population: Korea): 79.9 µg/mL; Cmax ([2]; C max,ss geometric mean (CV), Concomitant use of OAT1/OAT3 inhibitor(s): No): 71.7 µg/mL; Cmax ([2]; C max,ss geometric mean (CV), Concomitant use of OAT1/OAT3 inhibitor(s): Yes): 78.5 µg/mL; Cmax ([2]; C max,ss geometric mean (CV), Fever at baseline: Missing): 75.1 µg/mL; Cmax ([2]; C max,ss geometric mean (CV), Fever at baseline: No): 71.9 µg/mL; Cmax ([2]; C max,ss geometric mean (CV), Fever at baseline: Yes): 72.1 µg/mL; Cmax ([2]; C max,ss geometric mean (CV), Obesity I (29.9 ≤ BMI < 34.9 kg/m^2)): 67.9 µg/mL; Cmax ([2]; C max,ss geometric mean (CV), Obesity II (34.9 ≤ BMI < 39.9 kg/m^2)): 73.7 µg/mL; Cmax ([2]; C max,ss geometric mean (CV), Obesity III (BMI ≥ 39.9 kg/m^2)): 64.2 µg/mL; Cmax ([2]; C max,ss geometric mean (CV), Obesity: Missing): 70.9 µg/mL; Cmax ([2]; C max,ss geometric mean (CV), Obesity: Normal): 73 µg/mL; Cmax ([2]; C max,ss geometric mean (CV), Race: Asian (non‐Chinese; non‐Japanese)): 82.2 µg/mL; Cmax ([2]; C max,ss geometric mean (CV), Race: Chinese and Taiwanese): 77.6 µg/mL; Cmax ([2]; C max,ss geometric mean (CV), Race: Japanese): 90.4 µg/mL; Cmax ([2]; C max,ss geometric mean (CV), Race: White/other): 68.6 µg/mL; AUC ([2]; intravenous): 748 µg·h/mL; Cmax ([2]; intravenous): 67 µg/mL; AUC ([2]; intravenous, 187.5 mg, AUCss,0–24 geometric mean (CV), Day 3 CrCL 8–15 mL/min (750‐187.5 mg q24 h)): 551 µg·h/mL; Cmax ([2]; intravenous, 187.5 mg, C max,ss geometric mean (CV), Day 3 CrCL 8–15 mL/min (750‐187.5 mg q24 h)): 34.3 µg/mL; AUC ([2]; intravenous, 500 mg, AUCss,0–24 geometric mean (CV), Day 3 CrCL > 150–180 mL/min (2000‐500 mg q8 h)): 652 µg·h/mL; Cmax ([2]; intravenous, 500 mg, C max,ss geometric mean (CV), Day 3 CrCL > 150–180 mL/min (2000‐500 mg q8 h)): 58.5 µg/mL; AUC ([2]; intravenous, AUCss,0–24 geometric mean (CV), Asian population: Korea): 952 µg·h/mL; AUC ([2]; intravenous, AUCss,0–24 geometric mean (CV), Asian population: Taiwan): 728 µg·h/mL; AUC ([2]; intravenous, AUCss,0–24 geometric mean (CV), Asian population: Vietnam): 852 µg·h/mL; AUC ([2]; intravenous, AUCss,0–24 geometric mean (CV), Bacteremia at baseline: No): 881 µg·h/mL; AUC ([2]; intravenous, AUCss,0–24 geometric mean (CV), Bacteremia at baseline: Yes): 919 µg·h/mL; AUC ([2]; intravenous, AUCss,0–24 geometric mean (CV), Baseline APACHE II score > 10): 938 µg·h/mL; AUC ([2]; intravenous, AUCss,0–24 geometric mean (CV), Baseline APACHE II score Missing): 979 µg·h/mL; AUC ([2]; intravenous, AUCss,0–24 geometric mean (CV), Baseline WBC count (cells/μL) > 12,000): 801 µg·h/mL; AUC ([2]; intravenous, AUCss,0–24 geometric mean (CV), Baseline WBC count (cells/μL) ≤ 12,000): 923 µg·h/mL; AUC ([2]; intravenous, AUCss,0–24 geometric mean (CV), Patient population: NP): 950 µg·h/mL; AUC ([2]; intravenous, AUCss,0–24 geometric mean (CV), Patient population: Non‐VAP): 1020 µg·h/mL; AUC ([2]; intravenous, AUCss,0–24 geometric mean (CV), Patient population: VAP): 830 µg·h/mL; AUC ([2]; intravenous, AUCss,0–24 geometric mean (CV), Patient population: cIAI): 749 µg·h/mL; AUC ([2]; intravenous, AUCss,0–24 geometric mean (CV), Patient population: cUTI): 979 µg·h/mL; AUC ([2]; intravenous, AUCss,0–24 geometric mean (CV), SIRS at baseline: Missing): 977 µg·h/mL; AUC ([2]; intravenous, AUCss,0–24 geometric mean (CV), SIRS at baseline: No): 895 µg·h/mL; AUC ([2]; intravenous, AUCss,0–24 geometric mean (CV), SIRS at baseline: Yes): 869 µg·h/mL; Cmax ([2]; intravenous, C max,ss geometric mean (CV), Asian population: Taiwan): 59.4 µg/mL; Cmax ([2]; intravenous, C max,ss geometric mean (CV), Asian population: Vietnam): 78.6 µg/mL; Cmax ([2]; intravenous, C max,ss geometric mean (CV), Bacteremia at baseline: No): 71.9 µg/mL; Cmax ([2]; intravenous, C max,ss geometric mean (CV), Bacteremia at baseline: Yes): 73.6 µg/mL; Cmax ([2]; intravenous, C max,ss geometric mean (CV), Baseline APACHE II score > 10): 72.3 µg/mL; Cmax ([2]; intravenous, C max,ss geometric mean (CV), Baseline APACHE II score Missing): 77.9 µg/mL; Cmax ([2]; intravenous, C max,ss geometric mean (CV), Baseline WBC count (cells/μL) > 12,000): 67.6 µg/mL; Cmax ([2]; intravenous, C max,ss geometric mean (CV), Baseline WBC count (cells/μL) ≤ 12,000): 74.6 µg/mL; Cmax ([2]; intravenous, C max,ss geometric mean (CV), Patient population: NP): 72.9 µg/mL; Cmax ([2]; intravenous, C max,ss geometric mean (CV), Patient population: Non‐VAP): 79 µg/mL; Cmax ([2]; intravenous, C max,ss geometric mean (CV), Patient population: VAP): 61.9 µg/mL; Cmax ([2]; intravenous, C max,ss geometric mean (CV), Patient population: cIAI): 66.9 µg/mL; Cmax ([2]; intravenous, C max,ss geometric mean (CV), Patient population: cUTI): 77.9 µg/mL; Cmax ([2]; intravenous, C max,ss geometric mean (CV), SIRS at baseline: Missing): 83.5 µg/mL; Cmax ([2]; intravenous, C max,ss geometric mean (CV), SIRS at baseline: No): 72.3 µg/mL; Cmax ([2]; intravenous, C max,ss geometric mean (CV), SIRS at baseline: Yes): 71.5 µg/mL; difference in steady‐state exposure vs. healthy volunteers ([2]; most patient subgroups): ≤ 20%; lower C max,ss ([2]; patients with VAP vs non‐VAP patients): ~ 20%; free plasma concentrations as % of total plasma concentrations [3]: 85%
